Test results from ChEMBL document CHEMBL5053510, “Discovery of AS-1763: A Potent, Selective, Noncovalent, and Orally Available Inhibitor of Bruton's Tyrosine Kinase” (J Med Chem, 2021).

Tests used:
[1] = biological target: Tyrosine-protein kinase Tec (Homo sapiens) (UniProt P42680); test: Inhibition of human TEC (359- 631) expressed in baculovirus expression system at 0.3 uM by mobility shift assay
[2] = tested on: Proto-oncogene tyrosine-protein kinase receptor Ret (Homo sapiens), P07949 [S891A]; test: Inhibition of human RET S891A mutant (658 - 1114) expressed in baculovirus expression system at 0.3 uM by mobility shift assay
[3] = MRT (0 to last) in dog at 1 mg/kg, iv; assay type: ADME, organism-based, Canis lupus familiaris; conditions: in vivo
[4] = MRT (0 to last) in dog at 5 mg/kg, po; assay type: ADME, organism-based, Canis lupus familiaris; conditions: in vivo
[5] = MRT (0 to last) in rat at 15 mg/kg, po; assay type: ADME, organism-based; conditions: in vivo
[6] = MRT (0 to last) in rat at 2 mg/kg, iv; assay type: ADME, organism-based; conditions: in vivo
[7] = MRT (0 to last) in mouse at 2 mg/kg, iv; assay type: ADME, organism-based; conditions: in vivo
[8] = MRT (0 to last) in mouse at 15 mg/kg, po; assay type: ADME, organism-based; conditions: in vivo
[9] = biological target: T1, Proto-oncogene tyrosine-protein kinase Src (Homo sapiens, UniProt P12931); test: Inhibition of human full length SRC expressed in baculovirus expression system at 0.3 uM by mobility shift assay
T1 sequence (P12931 2-536 limits assumed): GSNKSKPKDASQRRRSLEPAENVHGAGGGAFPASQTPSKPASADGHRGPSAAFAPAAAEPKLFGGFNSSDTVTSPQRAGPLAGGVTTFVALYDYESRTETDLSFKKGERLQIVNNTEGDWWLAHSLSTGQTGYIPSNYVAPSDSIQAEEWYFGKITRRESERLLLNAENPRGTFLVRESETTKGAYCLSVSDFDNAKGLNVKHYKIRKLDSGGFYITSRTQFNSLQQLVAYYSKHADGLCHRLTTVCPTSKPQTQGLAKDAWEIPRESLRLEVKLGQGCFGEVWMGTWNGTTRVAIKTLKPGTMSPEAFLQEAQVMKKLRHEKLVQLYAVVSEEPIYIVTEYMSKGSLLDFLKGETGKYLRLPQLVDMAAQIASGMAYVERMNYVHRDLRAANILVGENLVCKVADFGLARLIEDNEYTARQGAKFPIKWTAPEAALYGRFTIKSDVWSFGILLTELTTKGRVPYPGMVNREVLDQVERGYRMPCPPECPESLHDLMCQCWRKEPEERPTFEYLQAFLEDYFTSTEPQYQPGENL

[10] = biological target: Muscle, skeletal receptor tyrosine-protein kinase (Homo sapiens) (UniProt O15146); test: Inhibition of human MUSK expressed in baculovirus expression system at 0.3 uM by mobility shift assay
[11] = biological target: Tyrosine-protein kinase ITK/TSK (Homo sapiens) (UniProt Q08881); test: Inhibition of human ITK (2 - 620 residues) expressed in baculovirus expression system at 0.3 uM by mobility shift assay
[12] = biological target: T2, Epithelial discoidin domain-containing receptor 1 (Homo sapiens, UniProt Q08345); test: Inhibition of human DDR1 (444 - 876 residues) expressed in baculovirus expression system at 0.3 uM by mobility shift assay
T2 sequence (Q08345 whole entry, the tested form may be a part): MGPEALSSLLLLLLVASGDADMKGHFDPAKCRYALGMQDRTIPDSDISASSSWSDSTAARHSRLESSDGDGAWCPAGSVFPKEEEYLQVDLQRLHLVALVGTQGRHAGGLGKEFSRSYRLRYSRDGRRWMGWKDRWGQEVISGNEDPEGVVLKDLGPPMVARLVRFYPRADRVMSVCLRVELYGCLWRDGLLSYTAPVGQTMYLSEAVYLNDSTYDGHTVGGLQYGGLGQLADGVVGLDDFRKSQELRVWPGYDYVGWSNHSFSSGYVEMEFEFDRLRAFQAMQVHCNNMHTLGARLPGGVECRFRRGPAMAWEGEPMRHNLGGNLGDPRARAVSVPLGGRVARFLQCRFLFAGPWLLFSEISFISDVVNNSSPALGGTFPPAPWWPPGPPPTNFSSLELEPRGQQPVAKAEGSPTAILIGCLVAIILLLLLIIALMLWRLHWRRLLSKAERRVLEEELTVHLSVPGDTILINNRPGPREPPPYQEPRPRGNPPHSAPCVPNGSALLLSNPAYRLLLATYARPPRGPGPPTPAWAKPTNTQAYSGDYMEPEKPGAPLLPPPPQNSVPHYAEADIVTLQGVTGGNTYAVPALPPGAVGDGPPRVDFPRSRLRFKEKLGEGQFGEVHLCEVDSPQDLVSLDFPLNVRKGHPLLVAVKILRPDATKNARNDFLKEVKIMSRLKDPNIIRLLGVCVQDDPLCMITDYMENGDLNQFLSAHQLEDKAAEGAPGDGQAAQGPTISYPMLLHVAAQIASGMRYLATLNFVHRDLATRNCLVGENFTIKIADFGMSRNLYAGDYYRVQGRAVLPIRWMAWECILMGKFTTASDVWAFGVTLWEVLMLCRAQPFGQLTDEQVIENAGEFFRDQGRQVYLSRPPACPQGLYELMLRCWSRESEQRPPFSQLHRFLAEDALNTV

[13] = biological target: Cytoplasmic tyrosine-protein kinase BMX (Homo sapiens) (UniProt P51813); test: Inhibition of human full-length BMX (1 to 675 residues) expressed in baculovirus expression system at 0.3 uM by mobility shift assay
Chain of Cytoplasmic tyrosine-protein kinase BMX (Homo sapiens) (P51813 whole entry, the tested form may be a part): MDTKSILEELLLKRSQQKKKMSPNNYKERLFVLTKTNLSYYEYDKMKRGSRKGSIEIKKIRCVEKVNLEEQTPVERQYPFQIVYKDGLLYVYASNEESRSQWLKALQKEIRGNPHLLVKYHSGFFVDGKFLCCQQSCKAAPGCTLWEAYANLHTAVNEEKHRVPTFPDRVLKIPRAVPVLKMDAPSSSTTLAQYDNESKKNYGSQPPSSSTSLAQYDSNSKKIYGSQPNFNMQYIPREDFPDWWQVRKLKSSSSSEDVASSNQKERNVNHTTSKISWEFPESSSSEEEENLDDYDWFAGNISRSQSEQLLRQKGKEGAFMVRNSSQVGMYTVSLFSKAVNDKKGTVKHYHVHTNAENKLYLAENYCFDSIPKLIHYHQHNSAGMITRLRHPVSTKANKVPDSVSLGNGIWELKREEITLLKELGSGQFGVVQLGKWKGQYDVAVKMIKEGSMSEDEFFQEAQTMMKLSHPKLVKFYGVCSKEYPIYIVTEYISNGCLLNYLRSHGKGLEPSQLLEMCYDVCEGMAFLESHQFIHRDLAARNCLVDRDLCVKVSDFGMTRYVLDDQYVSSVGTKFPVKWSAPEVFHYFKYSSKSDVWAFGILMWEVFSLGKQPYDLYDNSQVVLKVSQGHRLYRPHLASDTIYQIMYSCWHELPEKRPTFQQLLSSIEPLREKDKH

[14] = tested on: Tyrosine-protein kinase BTK (Homo sapiens), Q06187 [C481S]; test: Inhibition of human full-length BTK C481S mutant (2 to 659 residues) expressed in baculovirus expression system at 0.3 uM by mobility shift assay
[15] = biological target: T3, Tyrosine-protein kinase BTK (Homo sapiens, UniProt Q06187); test: Inhibition of human full-length BTK (2 to 659 residues) expressed in baculovirus expression system at 0.3 uM by mobility shift assay
T3 sequence (Q06187 whole entry, the tested form may be a part): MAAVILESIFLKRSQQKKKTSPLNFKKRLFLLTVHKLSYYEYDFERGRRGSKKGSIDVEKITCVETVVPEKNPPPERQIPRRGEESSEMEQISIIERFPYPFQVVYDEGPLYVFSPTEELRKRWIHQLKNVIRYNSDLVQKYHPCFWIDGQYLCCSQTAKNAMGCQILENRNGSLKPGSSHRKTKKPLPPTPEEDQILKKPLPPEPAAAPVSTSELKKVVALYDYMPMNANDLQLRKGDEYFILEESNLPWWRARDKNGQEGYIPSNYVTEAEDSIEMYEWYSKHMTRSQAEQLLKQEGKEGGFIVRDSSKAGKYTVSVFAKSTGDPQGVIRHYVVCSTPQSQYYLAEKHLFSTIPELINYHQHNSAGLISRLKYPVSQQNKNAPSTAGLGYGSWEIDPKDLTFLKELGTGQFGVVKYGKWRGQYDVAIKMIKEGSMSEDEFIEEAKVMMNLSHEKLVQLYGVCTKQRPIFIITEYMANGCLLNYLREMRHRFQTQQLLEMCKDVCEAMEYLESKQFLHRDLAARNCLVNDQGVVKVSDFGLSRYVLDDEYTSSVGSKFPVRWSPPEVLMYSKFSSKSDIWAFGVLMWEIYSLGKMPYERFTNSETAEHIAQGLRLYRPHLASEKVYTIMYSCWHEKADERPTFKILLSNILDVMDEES

[16] = biological target: T3, Tyrosine-protein kinase BTK; test: Inhibition of human BTK-A using phosphorylated substrate in presence of ATP by microplate reader assay
OCI-Ly10 [17] = test: Antiproliferative activity against human OCILY10 cells assessed as reduction in cell proliferation measured after 96 hrs; assay type: functional, cell-based; conditions: OCI-Ly10, 96 h
[18] = Apparent permeability of the compound in human Caco-2 cells; assay type: ADME, cell-based
[19] = biological target: Cytoplasmic tyrosine-protein kinase BMX (Homo sapiens, UniProt P51813); test: Inhibition of human full-length BMX (1 to 675 residues) expressed in baculovirus expression system by mobility shift assay
Chain of Cytoplasmic tyrosine-protein kinase BMX (P51813 whole entry, the tested form may be a part): as the sequence (P51813 whole entry, the tested form may be a part) above

[20] = biological target: T2, Epithelial discoidin domain-containing receptor 1; test: Inhibition of human DDR1 (444 - 876 residues) expressed in baculovirus expression system by mobility shift assay
[21] = biological target: Tyrosine-protein kinase ITK/TSK (Homo sapiens, UniProt Q08881); test: Inhibition of human ITK (2 - 620 residues) expressed in baculovirus expression system by mobility shift assay
[22] = biological target: Muscle, skeletal receptor tyrosine-protein kinase (Homo sapiens, UniProt O15146); test: Inhibition of human MUSK expressed in baculovirus expression system by mobility shift assay
[23] = biological target: T1, Proto-oncogene tyrosine-protein kinase Src; test: Inhibition of human full length SRC expressed in baculovirus expression system by mobility shift assay
[24] = biological target: Tyrosine-protein kinase Tec (Homo sapiens, UniProt P42680); test: Inhibition of human TEC (359 - 631 residues) expressed in baculovirus expression system by mobility shift assay
[25] = biological target: T3, Tyrosine-protein kinase BTK; test: Inhibition of wild type BTK (unknown origin) in presence of 1 mM ATP by microplate reader assay
[26] = biological target: Tyrosine-protein kinase BTK (Homo sapiens, UniProt Q06187, C481S); test: Inhibition of BTK C481S mutant (unknown origin) in presence of 1 mM ATP by microplate reader assay
OCI-Ly10 [27] = test: Antiproliferative activity against human OCILY10 cells harboring BTK C481S mutant […] gene assessed as reduction in cell viability after 96 hrs; assay type: functional, cell-based; conditions: OCI-Ly10, 96 h
HEL 299 = test: Cytotoxicity against human HEL 299 cells assessed as cell growth inhibition measured after 96 hrs; assay type: cell-based; conditions: HEL 299, 96 h
[28] = Plasma protein binding in human; assay type: ADME, cell-free; conditions: read-out: PPB (converted)
[29] = Plasma protein binding in mouse; assay type: ADME, cell-free; conditions: read-out: PPB (converted)
[30] = Plasma protein binding in rat; assay type: ADME, cell-free; conditions: read-out: PPB (converted)
[31] = Plasma protein binding in dog; assay type: ADME, cell-free, Canis lupus familiaris; conditions: read-out: PPB (converted)
[32] = Metabolic stability in human hepatocytes assessed as Intrinsic clearance; assay type: ADME, cell-based, Hepatocyte
[33] = Metabolic stability in mouse hepatocytes assessed as Intrinsic clearance; assay type: ADME, cell-based, Hepatocyte
[34] = Metabolic stability in rat hepatocytes assessed as Intrinsic clearance; assay type: ADME, cell-based, Hepatocyte
[35] = Metabolic stability in dog hepatocytes assessed as Intrinsic clearance; assay type: ADME, cell-based, Canis lupus familiaris, Hepatocyte
Cytochrome P450 1A2 = Cytochrome P450 1A2 (Homo sapiens, UniProt P05177); test: Inhibition of CYP1A2 (unknown origin); assay type: ADME
Chain of Cytochrome P450 1A2 (P05177 whole entry): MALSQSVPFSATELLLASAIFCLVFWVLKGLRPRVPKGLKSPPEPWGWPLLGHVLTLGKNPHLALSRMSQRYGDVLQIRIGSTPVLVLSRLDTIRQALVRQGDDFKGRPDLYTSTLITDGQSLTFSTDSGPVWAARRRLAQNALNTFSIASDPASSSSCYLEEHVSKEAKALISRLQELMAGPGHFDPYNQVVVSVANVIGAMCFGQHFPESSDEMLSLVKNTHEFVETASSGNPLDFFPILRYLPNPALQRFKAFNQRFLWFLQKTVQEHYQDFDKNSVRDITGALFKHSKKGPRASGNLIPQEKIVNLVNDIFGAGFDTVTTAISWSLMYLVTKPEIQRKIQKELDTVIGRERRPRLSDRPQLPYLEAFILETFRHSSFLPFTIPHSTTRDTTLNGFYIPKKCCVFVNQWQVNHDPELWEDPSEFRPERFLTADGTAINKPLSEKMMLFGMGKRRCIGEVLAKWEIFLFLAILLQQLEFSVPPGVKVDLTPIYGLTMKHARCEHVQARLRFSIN

Cytochrome P450 2B6 = Cytochrome P450 2B6 (Homo sapiens, UniProt P20813); test: Inhibition of CYP2B6 (unknown origin); assay type: ADME
Cytochrome P450 2C19 = Cytochrome P450 2C19 (Homo sapiens, UniProt P33261); test: Inhibition of CYP2C19 (unknown origin); assay type: ADME
Chain of Cytochrome P450 2C19 (P33261 whole entry): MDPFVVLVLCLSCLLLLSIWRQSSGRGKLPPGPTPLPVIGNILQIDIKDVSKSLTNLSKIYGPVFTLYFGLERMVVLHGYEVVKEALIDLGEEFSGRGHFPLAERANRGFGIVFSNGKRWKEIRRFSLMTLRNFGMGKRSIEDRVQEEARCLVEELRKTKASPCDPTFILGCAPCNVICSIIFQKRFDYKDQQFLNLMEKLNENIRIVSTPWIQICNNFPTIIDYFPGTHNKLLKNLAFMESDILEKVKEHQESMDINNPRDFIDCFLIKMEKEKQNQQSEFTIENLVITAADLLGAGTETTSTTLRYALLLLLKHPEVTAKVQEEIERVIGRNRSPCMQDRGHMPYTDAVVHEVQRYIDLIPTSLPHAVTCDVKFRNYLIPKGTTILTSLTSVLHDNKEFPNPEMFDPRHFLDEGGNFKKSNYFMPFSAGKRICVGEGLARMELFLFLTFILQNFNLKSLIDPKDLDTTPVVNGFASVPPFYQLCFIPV

Cytochrome P450 2D6 = Cytochrome P450 2D6 (Homo sapiens, UniProt P10635); test: Inhibition of […] (unknown origin); assay type: ADME
Chain of Cytochrome P450 2D6 (P10635 whole entry): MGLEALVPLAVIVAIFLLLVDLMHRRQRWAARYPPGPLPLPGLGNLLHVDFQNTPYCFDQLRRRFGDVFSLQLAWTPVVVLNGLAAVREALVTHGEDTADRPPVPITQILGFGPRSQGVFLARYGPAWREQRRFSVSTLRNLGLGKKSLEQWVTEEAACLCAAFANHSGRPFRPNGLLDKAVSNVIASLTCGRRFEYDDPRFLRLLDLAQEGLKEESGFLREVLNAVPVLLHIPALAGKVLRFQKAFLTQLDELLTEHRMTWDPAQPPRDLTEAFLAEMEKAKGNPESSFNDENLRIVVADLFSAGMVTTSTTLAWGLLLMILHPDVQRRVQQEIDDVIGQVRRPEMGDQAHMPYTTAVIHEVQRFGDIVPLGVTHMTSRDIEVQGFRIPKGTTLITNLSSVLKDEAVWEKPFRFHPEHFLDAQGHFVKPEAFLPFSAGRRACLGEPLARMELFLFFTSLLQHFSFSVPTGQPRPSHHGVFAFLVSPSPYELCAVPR

Cytochrome P450 3A4 = Cytochrome P450 3A4 (Homo sapiens, UniProt P08684); test: Inhibition of CYP3A4 (unknown origin); assay type: ADME

## Nc1nc(-c2cccc(-n3ccc4cc(C5CC5)cc(F)c4c3=O)c2CO)c2cc(C3=CCN(C4COC4)CC3)[nH]c2n1 [MILREBRUTINIB]
[1]
  inhibition: 99.6%
[2]
  inhibition: 67%
[3]
  MRT last: 1.23 h
[4]
  MRT last: 2.3 h
[5]
  MRT last: 4.03 h
[6]
  MRT last: 2.92 h
[7]
  MRT last: 1.36 h
[8]
  MRT last: 3.58 h
[9]
  inhibition: 51.9%
[10]
  inhibition: 53.2%
[11]
  inhibition: 78.8%
[12]
  inhibition: 53.4%
[13]
  inhibition: 97.7%
[14]
  inhibition: 99.8%
[15]
  inhibition: 99.4%
[16]
  IC50: 0.85 nM
OCI-Ly10 [17]
  IC50: 2 nM
[18]
  Papp: 1.42 ×10⁻⁶ cm/s
[19]
  IC50: 8.49 nM
[20]
  IC50: 221 nM
[21]
  IC50: 60.9 nM
[22]
  IC50: 306 nM
[23]
  IC50: 291 nM
[24]
  IC50: 1.34 nM
[25]
  IC50: 3.72 nM
[26]
  IC50: 5.88 nM
OCI-Ly10 [27]
  IC50: 20.4 nM
HEL 299
  IC50: 6370 nM
[28]
  fraction unbound: 0.02
[29]
  fraction unbound: 0.008
[30]
  fraction unbound: 0.012
[31]
  fraction unbound: 0.015
[32]
  CLH: 0.76 mL/min/g
[33]
  CLH: 2.11 mL/min/g
[34]
  CLH: 2.04 mL/min/g
[35]
  CLH: 1.28 mL/min/g
Cytochrome P450 1A2
  IC50: > 10000 nM
Cytochrome P450 2B6
  IC50: > 10000 nM
Cytochrome P450 2C19
  IC50: > 10000 nM
Cytochrome P450 2D6
  IC50: > 10000 nM
Cytochrome P450 3A4
  IC50: > 10000 nM
